Results reported in patent US9115143B2, “Substituted indole derivatives as gamma secretase modulators” (Janssen Pharmaceuticals, Inc., priority 2011, dated 2015).

Assays:
Aβ42 = experiment: Screening for γ-secretase-modulating activity: Aβ42 in supernatant of SKNBE2 cells carrying hAPP 695 wild type (Alphalisa); format: cell-based, human; settings: overnight incubation, Alphalisa on supernatant
How it was run: (§1)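 Secreted Aβ42 (C-terminal/N-terminal antibody pair) and Aβtotal (N-terminal/mid-region pair) were quantified by AlphaLISA after overnight compound exposure of wild-type hAPP 695 SKNBE2 cells at 37 °C. Values expressed relative to compound-free maximum, with IC50 from nonlinear 4-parameter regression.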

Aβtotal [1] = experiment: In vivo efficacy B-1a/B-2a: brain soluble Aβtotal in non-transgenic rodents, ELISA; parameters: species or system mouse; settings: dose 30 mg/kg oral dosing, brain soluble fraction, untreated animals (Ctrl) set at 100; for response vs control in vivo at 30 mg/kg: Mus musculus, po, 4 h, read-out: Aβtotal (% vs Ctrl)_Mean; for Aβtotal (% vs Ctrl)_Mean: 30 mg/kg
Source text: To determine whether acute administration of an Aβ42 lowering agent would reduce Aβ42 levels in vivo, non-transgenic rodents, e.g. mice or rats were used. Animals treated with the Aβ42 lowering agent were examined and compared to those untreated or treated with vehicle and brain levels of soluble Aβ42 and total Aβ were quantitated by standard techniques, for example, using ELISA. Treatment periods varied from hours (h) to days and were adjusted based on the results of the Aβ42 lowering once a time course of onset of effect could be established.
A typical protocol for measuring Aβ42 lowering in vivo is shown but it is only one of many variations that could be used to optimize the levels of detectable Aβ. For example, Aβ42 lowering compounds were formulated in 20% of Captisol® (a sulfobutyl ether of β-cyclodextrin) in water or 20% hydroxypropyl β cyclodextrin. The Aβ42 lowering agents were administered as a single oral dose or by any acceptable route of administration to overnight fasted animals. After 4 h, the animals were sacrificed and Aβ42 levels were analysed.
Blood was collected by decapitation and exsanguinations in EDTA-treated collection tubes. Blood was centrifuged at 1900 g for 10 minutes (min) at 4° C. and the plasma recovered and flash frozen for later analysis. The brain was removed from the cranium and hindbrain. The cerebellum was removed and the left and right hemisphere were separated. The left hemisphere was stored at −18° C. for quantitative analysis of test compound levels. The right hemisphere was rinsed with phosphate-buffered saline (PBS) buffer and immediately frozen on dry ice and stored at −80° C. until homogenization for biochemical assays.
Mouse brains from non-transgenic animals were resuspended in 8 volumes of 0.4% DEA (diethylamine)/50 mM NaCl containing protease inhibitors (Roche-11873580001 or 04693159001) per gram of tissue, e.g. for 0.158 g brain, add 1.264 mL of 0.4% DEA. All samples were homogenized in the FastPrep-24 system (MP Biomedicals) using lysing matrix D (MPBio #6913-100) at 6 m/s for 20 seconds. Homogenates were centrifuged at 20800×g for 5 min and supernatants collected. Supernatants were centrifuged at 221.300×g for 50 min. The resulting high speed supernatants were then transferred to fresh eppendorf tubes. Nine parts of supernatant were neutralized with 1 part 0.5 M Tris-HCl pH 6.8 and used to quantify Aβtotal and Aβ42.
To quantify the amount of Aβtotal and Aβ42 in the soluble fraction of the brain homogenates, Enzyme-Linked-Immunosorbent-Assays were used. Briefly, the standards (a dilution of synthetic Aβ1-40 and Aβ1-42, Bachem) were prepared in 1.5 mL Eppendorf tube in Ultraculture, with final concentrations ranging from 10000 to 0.3 pg/mL. The samples and standards were co-incubated with HRPO-labelled N-terminal antibody JRF/rAμ/2 for Aβ42 detection and with the biotinylated mid-domain antibody 4G8 for Aβtotal detection. 50 μl of conjugate/sample or conjugate/standards mixtures were then added to the antibody-coated plate (the capture antibodies selectively recognize the C-terminal end of Aβ42, antibody JRF/cAβ42/26, for Aβ42 detection and the N-terminus of AB, antibody JRF/rAβ/2, for Aβtotal detection). The plate was allowed to incubate overnight at 4° C. in order to allow formation of the antibody-amyloid complex. Following this incubation and subsequent wash steps the ELISA for Aβ42 quantification was finished by addition of Quanta Blu fluorogenic peroxidase substrate according to the manufacturer's instructions (Pierce Corp., Rockford, Ill.). A reading was performed after 10 to 15 min (excitation 320 nm/emission 420 nm).
For Aβtotal detection, a Streptavidine-Peroxidase-Conjugate was added, followed 60 min later by an additional wash step and addition of Quanta Blu fluorogenic peroxidase substrate according to the manufacturer's instructions (Pierce Corp., Rockford, Ill.). A reading was performed after 10 to 15 min (excitation 320 nm/emission 420 nm). […]

Aβtotal [2] = experiment: Screening for γ-secretase-modulating activity: Aβtotal in supernatant of SKNBE2 cells carrying hAPP 695 wild type (Alphalisa); format: cell-based, human; settings: overnight incubation, Alphalisa on supernatant
How it was run: as §1

[3] = SKNBE2 human neuroblastoma cells carrying hAPP 695 wild type
[4] = Homo sapiens, SKNBE2, SKNBE2 human neuroblastoma cells carrying hAPP 695 wild type

IC50 (Aβ42; [3]) [nM] | IC50 (Aβtotal [2]; [3]) [nM] | IC50 (Aβtotal [2]; [4]) [nM] | IC50 (Aβ42; [4]) [nM] | Compound | response vs control in vivo at 30 mg/kg (Aβtotal [1]) [%] | Aβtotal (% vs Ctrl)_Mean (Aβtotal [1]) [% vs Ctrl]
24 | > 10000 | – | – | Cc1cn(-c2ccc3[nH]c(-c4nc5n(n4)CCCC5c4ccc(F)cc4C)cc3c2)cn1 (single isomer, unassigned) [Compound 77, 8-(4-fluoro-2-methylphenyl)-5,6,7,8-tetrahydro-2-[5-(4-methyl-1H-imidazol-1-yl)-1H-indol-2-yl]-[1,2,4]triazolo[1,5-a]pyridine] | 102 | –
89 | > 10000 | – | – | Cc1cc(F)ccc1C1OCCn2cc(-c3cc4nc(-c5cnn(C)c5)ccc4[nH]3)nc21 (single isomer, unassigned) [Compound 102, 8-(4-fluoro-2-methylphenyl)-5,6-dihydro-2-[5-(1-methyl-1H-pyrazol-4-yl)-1H-pyrrolo[3,2-b]pyridin-2-yl]-8H-imidazo[2,1-c][1,4]oxazine] | 121 | –
37 | – | > 10000 | – | COc1c(C#N)ccc2[nH]c(-c3nc4n(n3)CCOC4c3c(F)cccc3Cl)cc12 (single isomer, unassigned) [Compound 117, 2-[8-(2-chloro-6-fluorophenyl)-5,6-dihydro-8H-[1,2,4]triazolo[5,1-c][1,4]oxazin-2-yl]-4-methoxy-1H-indole-5-carbonitrile] | 103 | –
117 | > 10000 | – | – | Cc1cc(F)ccc1C1CCCn2nc(-c3[nH]c4ccc(C#N)cc4c3F)nc21 (single isomer, unassigned) [Compound 182, 3-fluoro-2-[8-(4-fluoro-2-methylphenyl)-5,6,7,8-tetrahydro[1,2,4]triazolo[1,5-a]pyridin-2-yl]-1H-indole-5-carbonitrile] | 118 | –
87 | – | > 10000 | – | Cc1cc(F)ccc1C1CCCn2cc(-c3cc4cc(C#N)ccc4[nH]3)nc21 (centres unmarked) [Compound 4, 2-[8-(4-fluoro-2-methylphenyl)-5,6,7,8-tetrahydroimidazo[1,2-a]pyridin-2-yl]-1H-indole-5-carbonitrile] | – | 82
– | – | > 10000 | 105 | Cc1cn(-c2ccc3[nH]c(-c4nc5n(n4)CCCC5c4ccccc4C)cc3n2)cn1.Cl (centres unmarked) [Compound 5, 5,6,7,8-tetrahydro-2-[5-(4-methyl-1H-imidazol-1-yl)-1H-pyrrolo[3,2-b]pyridin-2-yl]-8-(2-methylphenyl)-[1,2,4]triazolo[1,5-a]pyridine] | 80 | –
– | – | > 10000 | 47 | Cc1cc(-c2ccc3[nH]c(-c4nc5n(n4)CCCC5c4ccccc4C)cc3n2)ccn1 (centres unmarked) [Compound 6, 5,6,7,8-tetrahydro-8-(2-methylphenyl)-2-[5-(2-methyl-4-pyridinyl)-1H-pyrrolo[3,2-b]pyridin-2-yl]-[1,2,4]triazolo[1,5-a]pyridine] | 87 | –
– | – | > 10000 | 35 | COc1c(C#N)ccc2[nH]c(-c3nc4n(n3)CCCC4c3ccccc3C(F)(F)F)cc12 (centres unmarked) [Compound 7, 4-methoxy-2-[5,6,7,8-tetrahydro-8-[2-(trifluoromethyl)phenyl][1,2,4]triazolo[1,5-a]pyridin-2-yl]-1H-indole-5-carbonitrile] | 96 | –
– | – | > 10000 | 46 | Cc1cn(-c2ccc3[nH]c(-c4nc5n(n4)CCCC5c4ccccc4C(F)(F)F)cc3c2)cn1 (centres unmarked) [Compound 8, 5,6,7,8-tetrahydro-2-[5-(4-methyl-1H-imidazol-1-yl)-1H-indol-2-yl]-8-[2-(trifluoromethyl)phenyl]-[1,2,4]triazolo[1,5-a]pyridine] | 86 | –
138 | – | > 10000 | – | Cc1cc(F)ccc1C1CCCn2nc(-c3cc4cc(C#N)ccc4[nH]3)nc21 (centres unmarked) [Compound 9, 2-[8-(4-fluoro-2-methylphenyl)-5,6,7,8-tetrahydro[1,2,4]triazolo[1,5-a]pyridin-2-yl]-1H-indole-5-carbonitrile] | – | 97
102 | > 10000 | – | – | Cc1cc(F)ccc1C1CCCn2nc(-c3cc4cc(C#N)ccc4[nH]3)nc21 (centres unmarked) [Compound 10, 2-[8-(4-fluoro-2-methylphenyl)-5,6,7,8-tetrahydro[1,2,4]triazolo[1,5-a]pyridin-2-yl]-1H-indole-5-carbonitrile] | 105 | –
126 | – | > 10000 | – | Cc1ccccc1C1CCCn2nc(-c3cc4cc(C#N)ccc4[nH]3)nc21 (centres unmarked) [Compound 12, 2-[5,6,7,8-tetrahydro-8-(2-methylphenyl)[1,2,4]triazolo[1,5-a]pyridin-2-yl]-1H-indole-5-carbonitrile] | – | 91
72 | > 10000 | – | – | Cc1ccccc1C1CCCn2nc(-c3cc4cc(C#N)ccc4[nH]3)nc21 (centres unmarked) [Compound 13, 2-[5,6,7,8-tetrahydro-8-(2-methylphenyl)[1,2,4]triazolo[1,5-a]pyridin-2-yl]-1H-indole-5-carbonitrile] | 80 | –
– | – | > 10000 | 112 | N#Cc1ccc2[nH]c(-c3cn4c(n3)C(c3ccccc3Cl)CCC4)cc2c1 (centres unmarked) [Compound 16, 2-[8-(2-chlorophenyl)-5,6,7,8-tetrahydroimidazo[1,2-a]pyridin-2-yl]-1H-indole-5-carbonitrile] | 95 | –
– | – | > 10000 | 117 | N#Cc1ccc2[nH]c(-c3nc4n(n3)CCCC4c3ccccc3C(F)(F)F)cc2c1 (centres unmarked) [Compound 18, 2-[5,6,7,8-tetrahydro-8-[2-(trifluoromethyl)phenyl][1,2,4]triazolo[1,5-a]pyridin-2-yl]-1H-indole-5-carbonitrile] | 102 | –
– | – | > 10000 | 275 | N#Cc1ccc2[nH]c(-c3nc4n(n3)CCCC4c3cccc(OC(F)(F)F)c3)cc2c1 (centres unmarked) [Compound 20, 2-[5,6,7,8-tetrahydro-8-[3-(trifluoromethoxy)phenyl][1,2,4]triazolo[1,5-a]pyridin-2-yl]-1H-indole-5-carbonitrile] | 113 | –
– | – | > 10000 | 52 | Cc1cn(-c2cc3cc(-c4nc5n(n4)CCCC5c4ccccc4C)[nH]c3cn2)cn1 (centres unmarked) [Compound 30, 5,6,7,8-tetrahydro-2-[5-(4-methyl-1H-imidazol-1-yl)-1H-pyrrolo[2,3-c]pyridin-2-yl]-8-(2-methylphenyl)-[1,2,4]triazolo[1,5-a]pyridine] | 97 | –
– | – | 832 | 48 | Cc1cn(-c2ccc3[nH]c(-c4nc5n(n4)CCOC5c4ccccc4C(F)(F)F)cc3c2)cn1 (centres unmarked) [Compound 37, 5,6-dihydro-2-[5-(4-methyl-1H-imidazol-1-yl)-1H-indol-2-yl]-8-[2-(trifluoromethyl)phenyl]-8H-[1,2,4]triazolo[5,1-c][1,4]oxazine] | 93 | –
32 | > 10000 | – | – | COc1c(C#N)ccc2[nH]c(-c3nc4n(n3)CCOC4c3ccc(F)cc3C)cc12 (centres unmarked) [Compound 114, 2-[8-(4-fluoro-2-methylphenyl)-5,6-dihydro-8H-[1,2,4]triazolo[5,1-c][1,4]oxazin-2-yl]-4-methoxy-1H-indole-5-carbonitrile] | – | –
